Data on 7 molecules can be found in patent publication US20160214956A1, “NOVEL SOLUBLE GUANYLATE CYCLASE ACTIVATORS AND THEIR USE” (GLAXOSMITHKLINE INTELLECTUAL PROPERTY DEVELOPMENT LIMITED, priority 2013, published 2016).

Where only a bound is given, the exact number is not on record here.

The assay addresses T1, soluble guanylate cyclase (sGC) (Rattus norvegicus, UniProt P20595).
T1 construct: endogenous in cells; host or cells: primary rat aortic smooth muscle cells
T1 sequence (P20595 1-619): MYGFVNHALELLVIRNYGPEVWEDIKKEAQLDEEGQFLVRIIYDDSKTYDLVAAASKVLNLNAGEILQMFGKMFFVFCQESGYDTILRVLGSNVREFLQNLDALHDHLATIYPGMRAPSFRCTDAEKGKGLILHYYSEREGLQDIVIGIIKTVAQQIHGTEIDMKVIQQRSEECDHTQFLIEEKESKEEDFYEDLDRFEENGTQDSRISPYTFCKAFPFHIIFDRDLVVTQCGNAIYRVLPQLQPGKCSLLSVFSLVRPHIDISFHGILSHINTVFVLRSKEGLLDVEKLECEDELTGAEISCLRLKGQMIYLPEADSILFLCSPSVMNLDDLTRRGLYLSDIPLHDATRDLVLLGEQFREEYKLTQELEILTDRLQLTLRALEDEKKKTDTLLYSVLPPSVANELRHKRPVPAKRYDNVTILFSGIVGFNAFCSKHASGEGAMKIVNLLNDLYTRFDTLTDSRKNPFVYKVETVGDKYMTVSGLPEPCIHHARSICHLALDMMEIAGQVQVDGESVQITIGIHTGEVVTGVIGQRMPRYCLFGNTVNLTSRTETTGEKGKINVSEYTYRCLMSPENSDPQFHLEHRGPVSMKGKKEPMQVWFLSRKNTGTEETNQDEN
T1 sequence (P19686 1-690 partner): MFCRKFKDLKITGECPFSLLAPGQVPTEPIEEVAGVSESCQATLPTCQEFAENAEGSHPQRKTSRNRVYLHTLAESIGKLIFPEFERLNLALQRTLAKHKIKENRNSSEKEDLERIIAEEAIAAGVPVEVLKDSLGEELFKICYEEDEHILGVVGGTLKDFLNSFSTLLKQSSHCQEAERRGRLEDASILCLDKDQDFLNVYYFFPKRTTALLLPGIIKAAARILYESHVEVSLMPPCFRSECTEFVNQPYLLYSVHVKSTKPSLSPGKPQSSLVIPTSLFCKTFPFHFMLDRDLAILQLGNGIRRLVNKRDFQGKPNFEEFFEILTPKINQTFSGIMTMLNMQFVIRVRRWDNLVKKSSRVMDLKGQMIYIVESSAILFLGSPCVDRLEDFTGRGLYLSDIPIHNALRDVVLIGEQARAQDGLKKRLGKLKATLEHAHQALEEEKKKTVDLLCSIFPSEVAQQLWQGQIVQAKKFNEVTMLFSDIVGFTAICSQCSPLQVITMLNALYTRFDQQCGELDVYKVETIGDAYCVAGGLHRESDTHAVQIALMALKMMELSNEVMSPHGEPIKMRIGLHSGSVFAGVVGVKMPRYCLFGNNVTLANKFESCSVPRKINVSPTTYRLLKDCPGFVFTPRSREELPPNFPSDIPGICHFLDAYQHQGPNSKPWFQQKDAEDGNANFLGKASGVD
The assay can be described thus: Cellular assay, VASP phosphorylation in rat aortic smooth muscle cells with ODQ. The assay is classed as cell-based. The settings on record: phospho-VASP signal, primary rat aortic smooth muscle cells, 10 μM ODQ, 30 min incubation; 50% vs. Bmax; read-out: Cell assay pEC50 (converted). On the procedure:
The activity of soluble guanylate cyclase (sGC) was tested in an assay based on measuring phosphorylation of the protein kinase G (PKG) substrate vasodilator-stimulated phosphoprotein (VASP) in rat aortic smooth muscle cells. […] Dimethylsulfoxide (DMSO) vehicle and varying concentrations of the compound to be tested were then added. Following a 30 min incubation at 37° C., media was aspirated and the cells were rinsed with phosphate-buffered saline (PBS) and fixed with 4% formaldehyde in PBS by incubating at room temperature for 20 min. Cells were then washed with PBS and permeabilized for 10 min using 0.1% triton X-100 in PBS. Following PBS rinsing, the cells were blocked for 90 min at room temperature with blocking buffer. The buffer was aspirated and the cells were treated overnight at 4° C. with primary antibody (pSer239-VASP, rabbit polyclonal Ab) diluted 1:500 in blocking buffer. Following three washes with 0.05% Tween 20, the cells were treated for 1 h at room temperature with a fluorescent labeled secondary antibody (IRDye® 800CW Donkey Anti-Rabbit IgG) diluted 1:2500 in blocking buffer with 0.05% Tween 20. Following two washes with PBS, infrared fluorescence was measured using an Odyssey Infrared Imaging System. The activity of a test compound was determined as the pEC50 value which is the concentration able to increase by 50% (vs. Bmax) the phospho-VASP fluorescent signal. Front. Pharmacol., 5 Jul. 2012|doi: 10.3389/fphar.2012.00128, Volume 3 July, 2012, Article number 128.

Turning to `Cc1cc(OCCCC(F)(F)F)ccc1CCc1ccccc1-c1cccc(-n2ncc(C(=O)O)c2C(F)(F)F)n1` [Example 1, 1-(6-(2-(2-methyl-4-(4,4,4-trifluorobutoxy)phenethyl)phenyl)pyridin-2-yl)-5-(trifluoromethyl)-1H-pyrazole-4-carboxylic acid], the EC50 was 14.5 nM.

With `Cc1cc(OCCCn2ccc(C(F)(F)F)n2)ccc1CCc1ccccc1-c1cccc(-n2ncc(C(=O)O)c2C(F)(F)F)n1` [Example 3, 1-(6-(2-(2-methyl-4-(3-(3-(trifluoromethyl)-1H-pyrazol-1-yl)propoxy)phenethyl)phenyl)pyridin-2-yl)-5-(trifluoromethyl)-1H-pyrazole-4-carboxylic acid], the EC50 was 5.89 nM.

With `O=C(O)c1cnn(-c2cccc(-c3ccccc3OCc3ccc(OCCCC(F)(F)F)cc3F)n2)c1C(F)(F)F` [Example 5, 1-(6-(2-((2-fluoro-4-(4,4,4-trifluorobutoxy)benzyl)oxy)phenyl)pyridin-2-yl)-5-(trifluoromethyl)-1H-pyrazole-4-carboxylic acid], the EC50 was 60.3 nM.

With `COCCCOc1ccc(COc2ccccc2-c2cccc(-n3ncc(C(=O)O)c3C(F)(F)F)n2)c(F)c1` [Example 6, 1-(6-(2-((2-fluoro-4-(3-methoxypropoxy)benzyl)oxy)phenyl)pyridin-2-yl)-5-(trifluoromethyl)-1H-pyrazole-4-carboxylic acid], the EC50 was 151 nM.

As for `Cc1cc(OCCCC#N)ccc1COc1ccccc1-c1cccc(-n2ncc(C(=O)O)c2C(F)(F)F)n1` [Example 9, 1-(6-(2-((4-(3-cyanopropoxy)-2-methylbenzyl)oxy)phenyl)pyridin-2-yl)-5-(trifluoromethyl)-1H-pyrazole-4-carboxylic acid], the EC50 was more than 631 nM.

Regarding `COCCCOc1ccc(COc2ccccc2-c2cccc(-n3ncc(C(=O)O)c3C(F)(F)F)n2)c(C)c1` [Example 10, 1-(6-(2-((4-(3-methoxypropoxy)-2-methylbenzyl)oxy)phenyl)pyridin-2-yl)-5-(trifluoromethyl)-1H-pyrazole-4-carboxylic acid], the EC50 was 91.2 nM.

On to `Cc1cc(OCCCC(F)(F)F)ccc1COc1ccccc1-c1cccc(-n2ncc(C(=O)O)c2C(F)(F)F)n1` [Example 11, 1-(6-(2-((2-methyl-4-(4,4,4-trifluorobutoxy)benzyl)oxy)phenyl)pyridin-2-yl)-5-(trifluoromethyl)-1H-pyrazole-4-carboxylic acid], for which the EC50 is 102 nM.
